Test results reported in US11059795B2, “Androgen receptor modulators and methods for their use” (ESSA Pharma, Inc., priority 2018, dated 2021).
Read-outs that look alike come from different tables or passages of the source.

Tests used:
androgen receptor (AR) = target: T1, androgen receptor (AR) (Homo sapiens, UniProt P10275, T878A); assay: Androgen-induced PSA (6.1 kb)-luciferase reporter assay in LNCaP cells; format: cell-based; conditions: LNCaP cells transfected with PSA (6.1 kb)-luciferase reporter, R1881 1 nM, 24 h
T1 construct: LNCaP cells were transiently transfected with the PSA (6.1 kb)-luciferase reporter for 24 h; endogenous in cells; host or cells: LNCaP
T1 sequence (P10275 1-920 T878A): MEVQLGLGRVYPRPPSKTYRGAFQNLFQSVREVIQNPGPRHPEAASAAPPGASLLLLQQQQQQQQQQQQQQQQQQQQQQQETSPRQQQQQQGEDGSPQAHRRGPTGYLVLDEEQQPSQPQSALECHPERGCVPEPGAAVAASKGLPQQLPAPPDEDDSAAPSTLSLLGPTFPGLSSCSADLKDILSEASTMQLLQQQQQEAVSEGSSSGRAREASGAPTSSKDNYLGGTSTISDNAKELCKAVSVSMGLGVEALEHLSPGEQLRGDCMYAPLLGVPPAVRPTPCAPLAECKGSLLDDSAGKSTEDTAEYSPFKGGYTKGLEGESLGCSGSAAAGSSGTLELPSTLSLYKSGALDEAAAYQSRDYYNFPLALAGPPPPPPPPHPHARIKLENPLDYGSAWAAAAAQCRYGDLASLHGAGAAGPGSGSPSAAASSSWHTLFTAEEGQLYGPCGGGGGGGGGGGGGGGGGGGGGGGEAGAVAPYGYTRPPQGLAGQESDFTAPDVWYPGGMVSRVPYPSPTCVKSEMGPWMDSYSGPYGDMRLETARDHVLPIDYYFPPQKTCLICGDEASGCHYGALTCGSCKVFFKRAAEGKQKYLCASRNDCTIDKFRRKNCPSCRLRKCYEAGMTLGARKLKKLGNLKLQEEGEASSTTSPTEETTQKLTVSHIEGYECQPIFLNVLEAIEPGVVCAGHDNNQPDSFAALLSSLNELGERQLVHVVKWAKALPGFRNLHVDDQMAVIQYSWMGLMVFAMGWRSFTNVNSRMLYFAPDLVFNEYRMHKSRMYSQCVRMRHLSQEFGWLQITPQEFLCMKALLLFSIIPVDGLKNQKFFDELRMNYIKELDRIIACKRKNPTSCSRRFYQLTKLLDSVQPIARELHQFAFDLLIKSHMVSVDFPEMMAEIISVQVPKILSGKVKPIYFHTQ
Summary of the method: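 LNCaP cells carrying a PSA (6.1 kb) promoter-luciferase reporter with AREs; androgen-induced firefly luciferase read from lysates for 10 s. RLU normalized to protein content; IC50 calculated from the normalized data.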

[1] = Microsomal stability assay, human liver microsomes; format: in vitro ADME; conditions: for microsomal CLint at 1 μM: pH 7.4, 1 μM compound, 0.5 mg/mL protein, 37° C., read-out: HLM +/− NADPH: Clint (μL/min/mg protein); for half-life at 1 μM: pH 7.4, read-out: Liver microsome T½ (min) Human
Summary of the method: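 Compound at 1 μM was incubated at 37° C with 0.5 mg/mL liver microsomes and 1 mM NADPH and/or 1 mM UDPGA (with alamethicin) in 100 mM potassium phosphate pH 7.4, 3 mM MgCl2. Samples were taken at 0, 15, 30 and 60 min and measured by LC/MS/MS. t½ came from compound loss relative to 0 min, and Clint was scaled with 45 mg microsomal protein/g liver.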

Structure (SMILES)	IC50 (androgen receptor (AR); read-out: PSA-Luc IC50 Range)	microsomal CLint at 1 μM [1]	IC50 (androgen receptor (AR); read-out: PSA-Luc IC50)	half-life at 1 μM [1]
C[C@H](Oc1ccc(C(C)(C)c2cc(Cl)c(OCCCl)c(C#N)c2)cc1)c1ccnc(NS(C)(=O)=O)n1 (single isomer, unassigned) [Compound A170]	500 to 2000 nM	< 12 µL/min/mg		
CC(C)(c1ccc(OCc2ocnc2S(C)(=O)=O)cc1)c1cc(Cl)c(OCCCl)c(Cl)c1 [Compound A13, 5-((4-(2-(3,5-dichloro-4-(2-chloroethoxy)phenyl)propan-2-yl)phenoxy)methyl)-4-(methylsulfonyl)oxazole]	500 to 2000 nM	< 12 µL/min/mg	592 nM	> 120 min
CC(C)(c1ccc(OCc2ocnc2S(C)(=O)=O)cc1)c1cc(Cl)c(OCCCl)c(C#N)c1 [Compound A28, 3-chloro-2-(2-chloroethoxy)-5-(2-(4-((4-(methylsulfonyl)oxazol-5-yl)methoxy)phenyl)propan-2-yl)benzonitrile]	< 500 nM	< 12 µL/min/mg	400 nM	> 120 min
CC(C)(c1ccc(OCc2coc(NS(C)(=O)=O)n2)cc1)c1cc(Cl)c(OCCCl)c(Cl)c1 [Compound A38, N-(4-((4-(2-(3,5-dichloro-4-(2-chloroethoxy)phenyl)propan-2-yl)phenoxy)methyl)oxazol-2-yl)methanesulfonamide]	500 to 2000 nM	< 12 µL/min/mg	631 nM	> 120 min
CC(C)(c1ccc(OCc2ccnc(NS(C)(=O)=O)n2)cc1)c1cc(Cl)c(OCCCl)c(Cl)c1 [Compound A74, N-(4-((4-(2-(3,5-dichloro-4-(2-chloroethoxy)phenyl)propan-2-yl)phenoxy)methyl)pyrimidin-2-yl)methanesulfonamide]	500 to 2000 nM	< 12 µL/min/mg	658 nM	> 120 min
CC(C)(c1ccc(OCc2ncc(S(C)(=O)=O)s2)cc1)c1cc(Cl)c(OCCCl)c(C#N)c1 [Compound A93, 3-chloro-2-(2-chloroethoxy)-5-(2-(4-((5-(methylsulfonyl)thiazol-2-yl)methoxy)phenyl)propan-2-yl)benzonitrile]	< 500 nM	< 12 µL/min/mg	205 nM	> 120 min
CC(C)(c1ccc(OCc2ccnc(NS(C)(=O)=O)n2)cc1)c1cc(Cl)c(OCCCl)c(C#N)c1 [Compound A109, N-(4-((4-(2-(3-chloro-4-(2-chloroethoxy)-5-cyanophenyl)propan-2-yl)phenoxy)methyl)pyrimidin-2-yl)methanesulfonamide]	500 to 2000 nM	< 12 µL/min/mg	535 nM	> 120 min
Cc1cnc(NS(C)(=O)=O)nc1COc1ccc(C(C)(C)c2cc(Cl)c(OCCCl)c(C#N)c2)cc1 [Compound A122, N-(4-((4-(2-(3-Chloro-4-(2-chloroethoxy)-5-cyanophenyl)propan-2-yl)phenoxy)methyl)-5-methylpyrimidin-2-yl)methanesulfonamide]	< 500 nM	< 12 µL/min/mg		
CCS(=O)(=O)Nc1nc(COc2ccc(C(C)(C)c3cc(Cl)c(OCCCl)c(C#N)c3)cc2)co1 [Compound A126]	500 to 2000 nM	< 12 µL/min/mg		
CCS(=O)(=O)Nc1nccc(COc2ccc(C(C)(C)c3cc(Cl)c(OCCCl)c(C#N)c3)cc2)n1 [Compound A131]	500 to 2000 nM	< 12 µL/min/mg		
CC(C)(c1ccc(OCc2nc(S(C)(=O)=O)cs2)cc1)c1cc(Cl)c(OCCCl)c(C#N)c1 [Compound A136, 3-Chloro-2-(2-chloroethoxy)-5-(2-(4-((4-(methylsulfonyl)thiazol-2-yl)methoxy)phenyl)propan-2-yl)benzonitrile]	500 to 2000 nM	12 to 48 µL/min/mg		
CC(C)(c1ccc(OC[C@H](O)CNS(C)(=O)=O)cc1)c1cc(Cl)c(OC[C@H](O)CCl)c(Cl)c1 [X, reference compound]			1050 nM	> 120 min
